Ends that are not written are not given here.
Legend:
E. coli (ATCC 25922) [1] = settings: standard strain
How it was run: (§1)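 Log-phase cells grown in MH (bacteria) or SD (fungi) medium at 37 °C were plated at 1×10^5 CFU/ml with 2-fold serially diluted peptide (1-256 μM solutions added at twice final concentration). After 12 h at 37 °C, MIC was taken as the first clear well by eye, in triplicate.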

C. krusei ATCC6258 = settings: fungus
How it was run: as §1

C. albicans ATCC14053 = settings: fungus
How it was run: as §1

[2] = test system: P-5c, clinical isolated drug-resistant strain PA; settings: strain P-5c (PA)
How it was run: as §1

[3] = test system: S-1a, clinical isolated drug-resistant strain MRSA; settings: strain S-1a (MRSA)
How it was run: as §1

[4] = test system: E-4b, clinical isolated drug-resistant strain ESBL; settings: strain E-4b (ESBL)
How it was run: as §1

[5] = test system: E-3b, clinical isolated drug-resistant strain ESBL; settings: strain E-3b (ESBL)
How it was run: as §1

[6] = test system: Staphylococcus epidermidis (ATCC 12228); settings: standard strain
How it was run: as §1

C. glabrata ATCC22019 = settings: fungus
How it was run: as §1

[7] = test system: E-2b, clinical isolated drug-resistant strain ESBL; settings: strain E-2b (ESBL)
How it was run: as §1

[8] = test system: S-4a, clinical isolated drug-resistant strain MRSA; settings: strain S-4a (MRSA)
How it was run: as §1

[9] = test system: Staphylococcus aureus (ATCC 29213); settings: standard strain
How it was run: as §1

[10] = test system: P-1c, clinical isolated drug-resistant strain PA; settings: strain P-1c (PA)
How it was run: as §1

[11] = test system: P-3c, clinical isolated drug-resistant strain PA; settings: strain P-3c (PA)
How it was run: as §1

C. parapsilosis ATCC2001 = settings: fungus
How it was run: as §1

C. tropicalis ATCC750 = settings: fungus
How it was run: as §1

[12] = test system: E-1b, clinical isolated drug-resistant strain ESBL; settings: strain E-1b (ESBL)
How it was run: as §1

[13] = test system: S-3a, clinical isolated drug-resistant strain MRSA; settings: strain S-3a (MRSA)
How it was run: as §1

[14] = test system: P-4c, clinical isolated drug-resistant strain PA; settings: strain P-4c (PA)
How it was run: as §1

[15] = test system: E-5b, clinical isolated drug-resistant strain ESBL; settings: strain E-5b (ESBL)
How it was run: as §1

[16] = test system: S-2a, clinical isolated drug-resistant strain MRSA; settings: strain S-2a (MRSA)
How it was run: as §1

E. coli (ATCC 25922) [17] = assay: Outer membrane permeability, NPN probe; type: cell-based; settings: 1×MIC to 8×MIC, NPN fluorescence, 15 min
Method: The destruction of bacterial cell OM was determined by using hydrophobic fluorescent probe NPN (1-N-phenylnaphthylamine) to determine the effect of the compounds on the OM permeability of E. coli (ATCC 25922).
Taking compounds 2, 8, 9, 13 and 15 of the present invention as examples, the OM permeability of E. coli with the presence of the antibacterial polypeptide compounds was analyzed. E. coli cells were washed twice with PBS solution and resuspended in 5 mM HEPES (pH 7.2), and then diluted to a concentration of […]. […] The excitation wavelength and emission wavelength were set to 350 nm and 420 nm, separately, and the cells were detected once every minute using a multifunctional ELISA reader within a 15-min period of time.

[18] = test system: E. coli ML-35 (ATCC 43837); assay: Inner membrane permeability, ONPG / β-galactosidase release; type: cell-based; settings: 1×MIC to 8×MIC, 90 min
Method: The effect on the integrity of bacterial […] was determined by determining the release amount of β-galactosidase from E. coli ML-35 (ATCC 43837) with ONPG (o-nitrobenzene-β-D-galactoside), thereby detecting the effect of the compounds on the permeability of E. coli IM.
Taking compounds 2, 8, 9, 13 and 15 of the present invention as examples, the IM permeability of E. coli with the presence of the antibacterial polypeptide compounds was analyzed. E. coli ML-35 cells were washed twice with PBS solution and resuspended in 0.9% sodium chloride solution. […] The cells were detected at 420 nm once every 5 mins using a multifunctional ELISA reader within a 90-min period of time.

Substance	MIC C. coli ATCC25922 (E. coli (ATCC 25922) [1]) [µM]	MIC C. krusei ATCC6258 (C. krusei ATCC6258) [µM]	MIC C. albicans ATCC14053 (C. albicans ATCC14053) [µM]	MIC [2] [µM]	MIC [3] [µM]	MIC [4] [µM]	MIC [5] [µM]	MIC S. epidermidis ATCC12228 [6] [µM]	MIC C. glabrata ATCC22019 (C. glabrata ATCC22019) [µM]	MIC [7] [µM]	MIC [8] [µM]	MIC S. aureus ATCC29213 [9] [µM]	MIC [10] [µM]	MIC [11] [µM]	MIC C. parapsilosis ATCC2001 (C. parapsilosis ATCC2001) [µM]	MIC C. tropicalis ATCC750 (C. tropicalis ATCC750) [µM]	MIC [12] [µM]	MIC [13] [µM]	MIC [14] [µM]	MIC [15] [µM]	further results
Pro-Trp-Orn-Leu-Orn-Leu-His-Leu-NH2 (PWXLXLHL; HELM PEPTIDE1{P.W.[Orn].L.[Orn].L.H.L.[am]}$$$$V2.0; N-terminus assumed; SMILES CC(C)C[C@H](NC(=O)[C@H](Cc1c[nH]cn1)NC(=O)[C@H](CC(C)C)NC(=O)[C@H](CCCN)NC(=O)[C@H](CC(C)C)NC(=O)[C@H](CCCN)NC(=O)[C@H](Cc1c[nH]c2ccccc12)NC(=O)[C@@H]1CCCN1)C(N)=O) [Compound 9]	8	64	32	8	64	8	8	32	16	8	64	64	8	8	16	16	8	64	8	8	MIC [16]: 64 µM; OM permeability of E. coli (E. coli (ATCC 25922) [17]): destroy the integrity of the E. coli OM in a dose-dependent manner; IM permeability of E. coli [18]: destroying the integrity of the E. coli IM in a dose-dependent manner
Pro-Phe-Lys-Leu-Ser-Leu-His-Leu-NH2 (PFKLSLHL-NH2) [Compound J-1, reference compound]	32	32	64	32	128	32	32	64	64	32	128	128	32	32	32	16	32	128	32	32	MIC [16]: 128 µM; OM permeability of E. coli (E. coli (ATCC 25922) [17]): destroy the integrity of the E. coli OM in a dose-dependent manner; IM permeability of E. coli [18]: destroying the integrity of the E. coli IM in a dose-dependent manner
